Measurements as given in PMC10384408, “Anticancer Tungstenocenes with a Diverse Set of (O,O–), (O,S–) and (O,N–) Chelates—A Detailed Biological Study Using an Improved Evaluation via 3D Spheroid Models” (Pharmaceutics, 2023).

Legend:
[1] = tested on: A549 (non-small cell lung carcinoma) cells; experiment: MTT cytotoxicity assay, A549 monolayer; format: cell-based, human; conditions: exposure time 96 h, mean ± SD
Description: (§1) CH1/PA-1 (ovarian teratocarcinoma), SW480 (colon carcinoma) and A549 (non-small cell lung cancer) cells were maintained as described in the reference. IMR-90 human fetal lung fibroblasts (from the European Collection of Authenticated Cell Cultures, Porton Down, Salisbury, UK) were cultured in Stable Cell^TM DMEM/F12 supplemented with 0.01 mg/mL human recombinant insulin (both purchased from Sigma-Aldrich) and 10% fetal bovine serum (FBS, BioWest, Nuaillé, France). Human colon carcinoma cell lines HCT116 and HT29 (both kindly provided by the Institute of Cancer Research, Department of Medicine I, Medical University of Vienna, Austria) were cultured in McCoy’s 5a medium supplemented with 4 mM L-glutamine (both purchased from Sigma-Aldrich) and 10% FBS. MCF-7 human breast adenocarcinoma cells (kindly provided by M. Ogris, Department of Pharmaceutical Sciences, University of Vienna, Austria) were maintained in DMEM (high glucose) supplemented with 4 mM L-glutamine, 0.1 mg/mL human insulin (all purchased from Sigma-Aldrich) and 10% FBS. All cell lines were grown as monolayers in 75 cm^2 culture flasks (CytoOne, Starlab, Hamburg, Germany) at 37 °C in a humidified atmosphere containing 5% CO2.
Exponentially growing cells were plated into 96-well microculture plates (CytoOne, tissue culture treated, Starlab, Hamburg, Germany) in densities of 1 × 10^3 CH1/PA-1, 2 × 10^3 SW480, 3 × 10^3 A549 and 7 × 10^3 IMR-90 cells per well (each in 100 µL). After a 24 h preincubation, drugs were added in serial dilution to give a final volume of 200 µL/well and exposed for 96 h. At the end of the exposure, the drug solutions were replaced by 100 µL RPMI 1640/MTT mixture (7:1 ratio). MTT (3-(4,5-dimethylthiazol-2-yl)-2,5-diphenyl-2H-tetrazolium bromide), (Acros Organics, Geel, Belgium) solution was prepared in phosphate-buffered saline (5 mg/mL) and mixed with RPMI1640 medium supplemented with 4 mM L-glutamine (both from Sigma-Aldrich) and 10% FBS. After 4 h incubation, the formazan crystals were solubilized in 150 µL of DMSO per well. Absorbance was measured at 550 nm (and at 690 nm as a reference) with a microplate reader (ELx808, BioTek, Winoosky, VT, USA) and Gen5^TM 3.08 software (BioTek). The 50% inhibitory concentrations (IC50) relative to untreated controls were interpolated from concentration-effect curves. At least three biologically and technically independent experiments were performed.

HT29 cells [2] = experiment: Resazurin assay, HT29 2D monolayer; format: cell-based, human; conditions: 96 h
Description: as §1
For the resazurin assay in monolayer cultures, cells were seeded into 96-well microculture plates (CytoOne, tissue culture treated, Starlab, Hamburg, Germany) in densities of 2 × 10^3 HCT116, 2 × 10^3 HT29 and 4 × 10^3 MCF-7 cells per well (each in 100 µL). For tests in 3D cultures, spheroids were grown as described above. After 24 h (for monolayers) or 4 days (for spheroids) the test compounds in the appropriate medium were added in serial dilution to the plates to obtain a total volume of 200 µL/well. Wells without cells, containing medium and resazurin (Alfa Aesar, Thermo Fisher, Kandel, Germany) solution were used as blanks. After 96 h exposure 20 µL of the resazurin solution (440 µM) were added to each well, followed by a 4 h (2D) or 12 h (3D) incubation period. Resorufin fluorescence was quantified at 530 nm (and a reference wavelength of 620 nm) by using a microplate reader (Synergy HT, BioTek) with Gen5^TM 3.10 software (BioTek).

[3] = Cyclic voltammetry in MeCN (W(IV) to W(V)); format: physicochemical; conditions: vs. NHE, scan rate 200 mV/s
Description: NMR spectra were recorded with a Bruker FT-NMR Avance III^TM 500 MHz spectrometer at 500.10 (^1H), and 125.75 MHz (^13C) using DMSO–d6. 2D-NMR measurements were recorded utilizing standard pulse programs COSY, HSQC and HMBC. The Microanalytical Laboratory of the University of Vienna performed the elemental analyses with a Eurovector EA 3000(2009) equipped with a high temperature pyrolysis furnace (HT, Hekatech, Germany, 2009). Elemental analyses’ samples were weighed (weights from 1–3 mg were used) on a Sartorius SEC 2 ultra-micro balance with ±0.1 µg resolution. Two NIST-certified reference materials were used for calibration: sulfanilamide (C6H8N2O2S) and BBOT (2,5-bis-(5-tert-butyl-2-benzoxazol-2-yl)-thiophenone, C26H26N2O2S). The limit of quantification (LOQ) was 0.05 w% for C, H, N and 0.02 w% for S. For samples without N and/or S, the content of these elements was determined and verified to be below the LOQ. X-ray diffraction analyses were carried out on a Bruker X8 APEX II CCD diffractometer at 100 K. ESI-MS were recorded on a Bruker AmaZon SL ion trap mass spectrometer (Bruker Daltonics GmbH). Data were obtained and processed with Compass 1.3 and Data Analysis 4.0 (Bruker Daltonics GmbH). Infrared spectra were attained on a Bruker Vertex 70 FT-IR-spectrometer with an ATR-unit (attenuated total reflection unit) in the range of 4000–600 cm^−1. Intensities of the reported bands are described with w for weak, m for medium and s for strong; broad signals are additionally specified with the letter b in front of these abbreviations. Cyclic voltammograms (CVs) were measured in a three-electrode cell using 2 mm diameter glassy carbon disk working electrode, a platinum auxiliary electrode and an Ag|Ag^+ reference electrode containing 0.1 M AgNO3. Measurements were carried out at room temperature using an EG&G PARC potentiostat/galvanostat 273A. The solutions were deoxygenized by purging a stream of argon for 3 min through the solution and the experiment was performed under an argon atmosphere. The potentials were measured in a freshly prepared solution of (n Bu4N)[BF4] (0.1 M) in acetonitrile using ferrocene (Fe(η^5-C5H5)2) (E1/2 = +0.72 V vs. NHE) as an internal standard and are quoted relative to the normal hydrogen electrode (NHE).
The electrochemical behavior of all complexes and the precursor Cp2WCl2 was studied by cyclic voltammetry with a scan rate of 200 mV/s, from −0.5 to +1.2 or +1.5 V. Measurements were performed in triplicate. Due to low water solubility of compounds 1–10 acetonitrile (MeCN) was utilized in order to reach the 2 mM concentration.

HT29 cells [4] = experiment: Annexin V-FITC/PI apoptosis assay, HT29; conditions: HT29, 24 h; for ∑apoptotic cells [%]: sum of early and late

SMILES	IC50 [1]	IC50 (HT29 cells [2])	E1/2 [3]	early apoptotic cells [%] AV+ / PI- (HT29 cells [4]; 200 µM)	late apoptotic cells [%] AV+ / PI+ (HT29 cells [4]; 200 µM)	necrotic cells [%] AV- / PI+ (HT29 cells [4]; 200 µM)	viable cells [%] AV- / PI- (HT29 cells [4]; 200 µM)	∑apoptotic cells [%] (HT29 cells [4]; 200 µM)	early apoptotic cells [%] AV+ / PI- (HT29 cells [4]; 2 µM)	late apoptotic cells [%] AV+ / PI+ (HT29 cells [4]; 2 µM)	necrotic cells [%] AV- / PI+ (HT29 cells [4]; 2 µM)	viable cells [%] AV- / PI- (HT29 cells [4]; 2 µM)	∑apoptotic cells [%] (HT29 cells [4]; 2 µM)	early apoptotic cells [%] AV+ / PI- (HT29 cells [4]; 20 µM)	late apoptotic cells [%] AV+ / PI+ (HT29 cells [4]; 20 µM)	necrotic cells [%] AV- / PI+ (HT29 cells [4]; 20 µM)	viable cells [%] AV- / PI- (HT29 cells [4]; 20 µM)	∑apoptotic cells [%] (HT29 cells [4]; 20 µM)
Cc1occc(=S)c1[O-].F[P-](F)(F)(F)(F)F.[W+4].c1cc[cH-]c1.c1cc[cH-]c1 [Compound 2, Bis(η^5-cyclopentadienyl)[2-methyl-3-(oxo-κO)-4-(1H)-pyran-4-thionato-κS]tungsten(IV) hexafluorophosphate]	36 ± 6 µM	53 ± 9 µM	1.047 V	3.9 ± 1.8%	6.1 ± 1.0%	3.3 ± 2.4%	86.8 ± 2.4%	10%	–	–	–	–	–	–	–	–	–	–
F[P-](F)(F)(F)(F)F.O=c1c([O-])c(-c2ccc(Cl)cc2)oc2ccccc12.[W+4].c1cc[cH-]c1.c1cc[cH-]c1 [Compound 3, Bis(η^5-cyclopentadienyl)[2-(4-chlorophenyl)-3-(oxo-κO)-4(H)-chromen-4-oato-κO]tungsten(IV) hexafluorophosphate]	19 ± 3 µM	17 ± 4 µM	1.059 V	0.8 ± 0.5%	82.2 ± 4.1%	14.9 ± 2.8%	2.2 ± 1.3%	–	4.6 ± 4.1%	7.2 ± 3.8%	5.1 ± 4.2%	83.0 ± 3.8%	11.8%	8.6 ± 2.5%	11.1 ± 1.0%	5.4 ± 1.2%	74.9 ± 3.3%	19.7%
F[P-](F)(F)(F)(F)F.[O-]c1c(-c2ccc(Cl)cc2)oc2ccccc2c1=S.[W+4].c1cc[cH-]c1.c1cc[cH-]c1 [Compound 4, Bis(η^5-cyclopentadienyl)[2-(4-chlorophenyl)-3-(oxo-κO)-4(H)-chromen-4-thionato-κS]tungsten(IV) hexafluorophosphate]	6.3 ± 0.5 µM	5.5 ± 1 µM	1.082 V	–	–	–	–	–	3.7 ± 3.2%	4.8 ± 1.3%	5.4 ± 5.0%	86.2 ± 3.1%	8.5%	16.8 ± 5.2%	19.5 ± 2.0%	13.3 ± 5.1%	50.4 ± 4.1%	–
F[P-](F)(F)(F)(F)F.O=C([O-])c1ccccn1.[W+4].c1cc[cH-]c1.c1cc[cH-]c1 [Compound 5, Bis(η^5-cyclopentadienyl)[2-(carboxylato-κO)-pyridine-κN]tungsten(IV) hexafluorophosphate]	> 200 µM	> 200 µM	1.330 V	0.9 ± 0.7%	5.3 ± 6.9%	2.3 ± 1.5%	–	6.2%	–	–	–	–	–	–	–	–	–	–
Cc1c([O-])c(=O)ccn1C.F[P-](F)(F)(F)(F)F.[W+4].c1cc[cH-]c1.c1cc[cH-]c1 [Compound 6, Bis(η^5-cyclopentadienyl)[1,2-dimethyl-3-(oxo-κO)-4-(1H)-pyridonato-κO]tungsten(IV) hexafluorophosphate]	141 ± 36 µM	> 200 µM	0.885 V	4.3 ± 1.8%	4.2 ± 0.6%	2.4 ± 0.7%	89.1 ± 0.4%	8.5%	–	–	–	–	–	–	–	–	–	–
Cc1cc(=O)c([O-])co1.F[P-](F)(F)(F)(F)F.[W+4].c1cc[cH-]c1.c1cc[cH-]c1 [Compound 7, Bis(η^5-cyclopentadienyl)[2-methyl-5-(oxo-κO)-4-(1H)-pyran-4-ato-κO] tungsten(IV) hexafluorophosphate]	> 200 µM	> 200 µM	1.071 V	3.0 ± 1.6%	5.5 ± 1.9%	3.1 ± 2.3%	88.4 ± 3.8%	8.5%	–	–	–	–	–	–	–	–	–	–
Cc1cc(=S)c([O-])co1.F[P-](F)(F)(F)(F)F.[W+4].c1cc[cH-]c1.c1cc[cH-]c1 [Compound 8, Bis(η^5-cyclopentadienyl)[2-methyl-5-(oxo-κO)-pyran-4-(1H)-thionato-κS] tungsten(IV) hexafluorophosphate]	> 200 µM	> 200 µM	1.080 V	3.3 ± 2.1%	6.2 ± 4.1%	2.1 ± 0.9%	88.4 ± 3.6%	9.5%	–	–	–	–	–	–	–	–	–	–
